In patent US20090105477A1, “Quinazoline Protein Tyrosine Phosphatase Inhibitors” (priority 2004, published 2009):

Target: T1, Human PTP1B (1-321) (Homo sapiens, UniProt P18031)
T1 construct: Human PTP1B (1-321) was cloned from a human cDNA library; made in house; host or cells: E. coli
T1 sequence (P18031 1-321): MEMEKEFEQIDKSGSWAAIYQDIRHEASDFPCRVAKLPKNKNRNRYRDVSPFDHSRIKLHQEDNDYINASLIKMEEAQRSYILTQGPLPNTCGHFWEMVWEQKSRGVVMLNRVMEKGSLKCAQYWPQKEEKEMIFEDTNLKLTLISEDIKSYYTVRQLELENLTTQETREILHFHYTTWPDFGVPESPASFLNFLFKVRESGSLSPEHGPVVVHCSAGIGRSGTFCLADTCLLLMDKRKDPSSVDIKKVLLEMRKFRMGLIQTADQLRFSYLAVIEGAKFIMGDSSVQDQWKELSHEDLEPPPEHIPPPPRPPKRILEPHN
Assay: In Vitro Inhibition of PTP1B (PTPase assay)
Format: biochemical
Settings: PTP1B inhibitory activity, procedures of Example 150
Description: Human PTP1B (1-321) was cloned from a human cDNA library using conventional molecular biology techniques. The cDNA sequence was identical to the published human PTP1B sequence (Accession number M33689). The protein was expressed and purified from E. coli as described by Barford D. et. al J. Mol Biol (1994) 239, 726-730.
The measurement of PTPase activity was carried out using one of two methods:
The first method for the measurement of PTP1B inhibitory activity a tyrosine phosphorylated peptide based on the amino acid sequence of insulin receptor tyrosine autophosphorylation site 1146 (TRDI(pY)E) was used as substrate. The reaction conditions were as follows:
PTP1B (0.5-2 nM) was incubated with compound for 15 min in buffer containing 37.5 mM Bis-Tris buffer pH 6.2, 140 mMNaCl, 0.05% BSA and 2 mM DTT. The reaction was started by the addition of 50 μM substrate. After 20 min at room temperature (22-25° C.), the reaction was stopped with KOH and the amount of free phosphate measured using Malachite Green as previously described (Harder et al. 1994 Biochem J. 298; 395).
The second method was used for the measurement of general PTPase inhibitory activity across a panel of PTPases the substrate (6,8-difluoro-4-methylumbelliferyl phosphate (DiFMUP; from Molecular Probes) was used at the Km for each enzyme. The buffer conditions were identical as in the Malachite Green assay. The reaction was stopped with KOH. In this case the dephosphoryated product becomes fluorescent and the fluorescense read (Excitiation: […]/Emmission: 460 nM).

Row | Structure (SMILES) | IC50 [µM]
1 | Cc1cccc(C)c1-c1ccc2c(NCCO)nc(N)nc2c1 [Example 36, 2-[2-Amino-7-(2,6-dimethyl-phenyl)-quinazolin-4-ylamino]-ethanol] | 3.17
2 | CNc1nc(N)nc2cc(-c3ccccc3SC)ccc12 [Example 58, N4-Methyl-7-(2-methylsulfanyl-phenyl)-quinazoline-2,4-diamine] | 1.01
3 | CNc1nc(N)nc2cc(-c3ccccc3C)ccc12 [Example 6, N4-Methyl-7-o-tolyl-quinazoline-2,4-diamine] | 3.15
4 | Nc1nc(NCCO)c2ccc(-c3ccccc3C(F)(F)F)cc2n1 [Example 57, 2-[2-Amino-7-(2-trifluoromethyl-phenyl)-quinazolin-4-ylamino]-ethanol] | 3.34
5 | CCNc1nc(N)nc2cc(-c3c(C)cccc3C)ccc12 [Example 14, 7-(2,6-Dimethyl-phenyl)-N4-ethyl-quinazoline-2,4-diamine] | 2.48
6 | CSc1ccccc1-c1ccc2c(NCCO)nc(N)nc2c1 [Example 75, 2-[2-Amino-7-(2-methylsulfanyl-phenyl)-quinazolin-4-ylamino]-ethanol] | 4.18
7 | CNc1nc(N)nc2cc(-c3c(C)cccc3Cl)ccc12 [Example 89, 7-(2-Chloro-6-methyl-phenyl)-N4-methyl-quinazoline-2,4-diamine] | 1.46
8 | CNc1nc(N)nc2cc(-c3c(Cl)cccc3Cl)ccc12 [Example 24, 7-(2,6-Dichloro-phenyl)-N4-methyl-quinazoline-2,4-diamine] | 1.11
9 | CNc1nc(N)nc2cc(-c3ccccc3S(=O)(=O)N(C)C)ccc12 [Example 120, 2-(2-aAmino-4-methylamino-quinazolin-7-yl)-N,N-dimethyl-benzenesulfonamide] | 1.6
10 | Nc1nc(NCCO)c2ccc(-c3ccccc3F)cc2n1 [Example 41, 2-[2-Amino-7-(2-fluoro-phenyl)-quinazolin-4-ylamino]-ethanol] | 19
11 | CCS(=O)(=O)c1ccccc1-c1ccc2c(NC)nc(N)nc2c1 [Example 82, 7-(2-Ethanesulfonyl-phenyl)-N4-methyl-quinazoline-2,4-diamine] | 1.39
12 | CNc1nc(N)nc2cc(-c3c(C)cccc3C)ccc12 [Example 8, 7-(2,6-Dimethyl-phenyl)-N4-methyl-quinazoline-2,4-diamine] | 0.79
13 | Cc1cccc(C)c1-c1ccc2c(N(C)C)nc(N)nc2c1 [Example 9, 7-(2,6-Dimethyl-phenyl)-N4,N4-dimethyl-quinazoline-2,4-diamine] | 14
14 | CNc1nc(N)nc2cc(-c3ccc(F)cc3C)ccc12 [Example 69, 7-(4-Fluoro-2-methyl-phenyl)-N4-methyl-quinazoline-2,4-diamine] | 4.04
15 | CCNS(=O)(=O)c1ccccc1-c1ccc2c(NC)nc(N)nc2c1 [Example 125] | 1.89
16 | CNc1nc(N)nc2cc(-c3ccccc3S(C)(=O)=O)ccc12 [Example 72, 7-(2-Methanesulfonyl-phenyl)-N4-methyl-quinazoline-2,4-diamine] | 1.44
17 | CNc1nc(N)nc2cc(-c3ccccc3S(=O)(=O)NC)ccc12 [Example 126, N-methyl-2-(2-amino-4-methylamino-quinazolin-7-yl)-benzenesulfonamide] | 1.94
18 | CNc1nc(N)nc2cc(-c3ccccc3[S+](C)[O-])ccc12 (stereo not drawn) [Example 71, 7-(2-Methanesulfinyl-phenyl)-N4-methyl-quinazoline-2,4-diamine] | 2.78
19 | Cc1ccccc1-c1ccc2c(NCCO)nc(N)nc2c1 [Example 43, 2-(2-Amino-7-o-tolyl-quinazolin-4-ylamino)-ethanol] | 6.02
20 | CNc1nc(N)nc2cc(-c3c(OC)cccc3OC)ccc12 [Example 21, 7-(2,6-Dimethoxy-phenyl)-N4-methyl-quinazoline-2,4-diamine] | 3.5

Tested on: not given
Assay: not given
Settings: not given

Row | Structure (SMILES) | melting point [°C]
21 | CNc1nc(N)nc2cc(-c3ccccc3S(=O)(=O)NC)ccc12 [Example 126, N-methyl-2-(2-amino-4-methylamino-quinazolin-7-yl)-benzenesulfonamide] | 316 to 317
